# Measurements from PMC9226319, “Peripherally restricted transthyretin-based delivery system for probes and therapeutics avoiding opioid-related side effects” (Nature Communications, 2022).
# Where “and” joins values, the source holds several entries; their conditions need not be identical. Equal values may be shown once. Read-outs that look alike come from different tables or passages of the source.
# Assays:
# male Sprague-Dawley rats [1] = experiment: Gastrointestinal (GI) transit (charcoal meal) assays; assay type: in vivo, rat; conditions: rat, in vivo
# male Sprague-Dawley rats [2] = conditions: rat, in vivo
# purified human TTR = purified human TTR (Homo sapiens, UniProt P02766); experiment: Fluorescence polarization (FP) binding assay, ligands to TTR in buffer
# TTR in human serum = TTR in human serum (Homo sapiens, UniProt P02766); experiment: TTR serum fluorescent probe exclusion (FPE) selectivity assay; assay type: binding; conditions: ligand 10 µM; for %FPE probe fluorescence: human serum, replicates
# [3] = molecular target: human mu-opioid receptors (Homo sapiens, UniProt P35372); experiment: biochemical; assay type: binding
# Sequence of human mu-opioid receptors (P35372 whole entry): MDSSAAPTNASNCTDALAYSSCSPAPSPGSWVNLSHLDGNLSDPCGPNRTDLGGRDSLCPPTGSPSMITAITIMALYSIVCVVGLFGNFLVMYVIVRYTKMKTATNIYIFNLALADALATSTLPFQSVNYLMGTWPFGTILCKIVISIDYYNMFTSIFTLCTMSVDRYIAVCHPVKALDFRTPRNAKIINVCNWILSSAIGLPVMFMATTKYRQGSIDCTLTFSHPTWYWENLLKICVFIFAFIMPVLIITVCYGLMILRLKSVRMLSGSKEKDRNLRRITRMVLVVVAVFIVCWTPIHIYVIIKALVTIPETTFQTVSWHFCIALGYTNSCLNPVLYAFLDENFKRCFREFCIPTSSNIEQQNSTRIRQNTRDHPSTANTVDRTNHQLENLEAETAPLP
# [4] = rat, single SC dose 16 µmol/kg
# in vivo = conditions: male, Sprague Dawley, rat, sc, 16 umol/kg
compound,measurement,setting,value
"CN1CC[C@]23c4c5ccc(O)c4O[C@H]2[C@@H](O)C=C[C@H]3[C@H]1C5 [Morphine, reference compound]",GI transit as % of saline group,male Sprague-Dawley rats [1]; sc,18.81% and 20.1% and 15.01% and 14.94% and 19.9%
same,hot plate latency,male Sprague-Dawley rats [2]; iv,60 s
same,hot plate latency,male Sprague-Dawley rats [2]; sc,57.0 ± 2.5 s and 60 s
same,"hot plate latency, compound alone",male Sprague-Dawley rats [2]; sc,60 s
C=CCN1CC[C@]23c4c5ccc(O)c4O[C@H]2[C@@H](OCc2cn(CCOCCOCCNCCCCCCOc4cc(OCCCc6c(C)n[nH]c6C)cc(C(=O)O)c4)nn2)CC[C@@]3(O)[C@H]1C5 [AG10-L1-Nal],Kd,purified human TTR,485 nM
same,% Fluorescence polarization (mean),purified human TTR; log [nM] inhibitor 0.990,100.000%
same,% Fluorescence polarization (mean),purified human TTR; log [nM] inhibitor 1.291,101.730%
same,% Fluorescence polarization (mean),purified human TTR; log [nM] inhibitor 1.592,105.820%
same,% Fluorescence polarization (mean),purified human TTR; log [nM] inhibitor 1.893,101.210%
same,% Fluorescence polarization (mean),purified human TTR; log [nM] inhibitor 2.194,93.370%
same,% Fluorescence polarization (mean),purified human TTR; log [nM] inhibitor 2.495,87.150%
same,% Fluorescence polarization (mean),purified human TTR; log [nM] inhibitor 2.796,78.760%
same,% Fluorescence polarization (mean),purified human TTR; log [nM] inhibitor 3.097,63.020%
same,% Fluorescence polarization (mean),purified human TTR; log [nM] inhibitor 3.398,50.120%
same,% Fluorescence polarization (mean),purified human TTR; log [nM] inhibitor 3.699,44.570%
same,% Fluorescence polarization (mean),purified human TTR; log [nM] inhibitor 4.000,22.560%
same,% Fluorescence polarization (mean),purified human TTR; log [nM] inhibitor […],0.000%
same,% TTR occupancy in human serum,"TTR in human serum; FPE probe 3.6 µM, 3 h reading relative to probe alone, text mean ± s.d., table replicates",71.5 ± 1.8% and 70.26% and 71.49% and 74.04% and 70.09%
same,%FPE probe fluorescence,TTR in human serum; time 0.000 h,0.000%
same,%FPE probe fluorescence,TTR in human serum; time 0.083 h,1.080% and 0.767% and -1.456% and -0.892%
same,%FPE probe fluorescence,TTR in human serum; time 0.250 h,2.570% and 0.301% and -1.690% and -0.400%
same,%FPE probe fluorescence,TTR in human serum; time 0.500 h,1.410% and 3.016% and 1.843% and 4.013%
same,%FPE probe fluorescence,TTR in human serum; time 1.000 h,5.261% and 6.236% and 4.568% and 2.982%
same,%FPE probe fluorescence,TTR in human serum; time 1.250 h,9.024% and 8.732% and 5.446% and 7.822%
same,%FPE probe fluorescence,TTR in human serum; time 1.500 h,10.681% and 11.389% and 3.787% and 9.124%
same,%FPE probe fluorescence,TTR in human serum; time 1.750 h,16.590% and 14.034% and 12.392% and 15.982%
same,%FPE probe fluorescence,TTR in human serum; time 2.000 h,16.797% and 16.410% and 12.993% and 18.679%
same,%FPE probe fluorescence,TTR in human serum; time 2.250 h,24.164% and 18.098% and 17.162% and 21.660%
same,%FPE probe fluorescence,TTR in human serum; time 2.500 h,24.735% and 22.591% and 22.580% and 23.970%
same,%FPE probe fluorescence,TTR in human serum; time 2.750 h,27.729% and 25.808% and 22.823% and 27.770%
same,%FPE probe fluorescence,TTR in human serum; time 3.000 h,29.742% and 28.511% and 25.959% and 29.908%
same,%FPE probe fluorescence,TTR in human serum; time 3.500 h,34.408% and 33.995% and 32.949% and 35.412%
same,%FPE probe fluorescence,TTR in human serum; time 3.750 h,36.701% and 36.516% and 34.676% and 37.256%
same,%FPE probe fluorescence,TTR in human serum; time 4.000 h,39.055% and 39.875% and 38.359% and 40.118%
same,%FPE probe fluorescence,TTR in human serum; time 4.250 h,42.939% and 41.758% and 38.579% and 41.416%
same,%FPE probe fluorescence,TTR in human serum; time 4.500 h,43.175% and 42.158% and 39.564% and 43.974%
same,%FPE probe fluorescence,TTR in human serum; time 4.750 h,49.116% and 47.668% and 46.875% and 46.250%
same,%FPE probe fluorescence,TTR in human serum; time 5.000 h,48.320% and 48.257% and 45.947% and 47.487%
same,%FPE probe fluorescence,TTR in human serum; time 5.250 h,49.797% and 50.503% and 44.600% and 50.002%
same,%FPE probe fluorescence,TTR in human serum; time 5.500 h,51.668% and 52.681% and 50.017% and 50.897%
same,%FPE probe fluorescence,TTR in human serum; time 5.750 h,52.829% and 53.093% and 50.389% and 55.989%
same,%FPE probe fluorescence,TTR in human serum; time 6.000 h,53.052% and 53.791% and 49.880% and 55.657%
same,fold decrease in mu-opioid receptor binding affinity when TTR was present,[3],9 fold
same,fold higher mu-opioid receptor binding affinity than naloxegol,[3],3.5 fold
same,fold lower mu-opioid receptor binding affinity than naloxone,[3],3 fold
same,Ki,[3]; binding affinity to mu-opioid receptor (Ki),0.81 nM
same,Ki,[3]; binding affinity to mu-opioid receptor (Ki) in the presence of TTR,7.4 nM
"COc1ccc2c3c1O[C@H]1C(=O)CC[C@@]4(O)[C@@H](C2)N(C)CC[C@]314 [Oxycodone, reference compound]",GI transit (% of vehicle),male Sprague-Dawley rats [1],18.7 ± 3.0%
same,constipation (GI transit),male Sprague-Dawley rats [1],did not result in significant analgesia or constipation
same,GI transit (% of vehicle),male Sprague-Dawley rats [1]; sc,8.0 ± 2.7%
same,GI transit as % of vehicle group,male Sprague-Dawley rats [1]; sc,4.72% and 11.93% and 8.19% and 6.37% and 8.96%
same,k,[4],0.9 ± 0.12 h⁻¹
same,analgesia (hot plate),male Sprague-Dawley rats [2],did not result in significant analgesia or constipation
same,analgesic effect 1 hour after ICV dosing,male Sprague-Dawley rats [2],no analgesic effect
same,hot plate latency,male Sprague-Dawley rats [2]; sc,56.8 ± 3.8 s
same,AUC(0-inf),in vivo,4.85 ± 0.676 µM·h
same,CL/F,in vivo,55.3 mL/min/kg
same,half-life,in vivo,46.8 ± 5.4 min
